Values of other authors, collected in patent US20080095838A1, “Solid pharmaceutical composition containing a lipophilic active principle and preparation method thereof” (CLL Pharma, priority 2002, published 2008).
Counter-ions that a name gives are not always drawn.

Key:
[1] = in vivo
[2] = in water

elimination half-life [1]	SMILES	solubility [2]
approximately 20 hours	CC(C)OC(=O)C(C)(C)Oc1ccc(C(=O)c2ccc(Cl)cc2)cc1 [fenofibrate, 2-(4-(4-chlorobenzoyl)phenoxy)-2-methylpropanoic acid 1-methylethyl ester]	
	CC(C)(C)NC(=O)[C@@H]1C[C@@H]2CCCC[C@@H]2CN1C[C@@H](O)[C@H](Cc1ccccc1)NC(=O)[C@H](CC(N)=O)NC(=O)c1ccc2ccccc2n1 [saquinavir mesylate]	2220 µg/mL
